# According to PubChem BioAssay AID1845204 (Molecular Pharmacology Branch, DTP, NCI, 2023):
# System: HSSY-II tumor spheroid viability
# Assay: Anticancer human tumor HSSY-II cell line growth inhibition;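 also: spheroids exposed to compounds for seven days before reading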;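 as to viability, T/C: percent of DMSO vehicle control viability so 100% = untreated level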
# Settings: spheroids with HUVEC and MSC; for IC50: curve of first compound; for viability, T/C: stronger effect = lower value
# How it was run: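 Complex spheroids of malignant cells with endothelial cells and mesenchymal stem cells; agents alone or combined, from near clinical Cmax (or 10 microM if unknown) down in half-log steps, 0.25% DMSO final.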
compound,measurement,setting,value
Cc1sc2c(c1C)C(c1ccc(Cl)cc1)=NC(CC(=O)Nc1ccc(O)cc1)c1nnc(C)n1-2 (stereo not given) + CC[C@@]1(O)C(=O)OCc2c1cc1n(c2=O)Cc2cc3c(CN(C)C)c(O)ccc3nc2-1,IC50,second compound 0.003 µM,90.9 nM
same,IC50,second compound 0.00949 µM,< 9.49 nM
same,IC50,second compound 0.03 µM,< 9.49 nM
same,IC50,second compound 0.0949 µM,< 9.49 nM
same,IC50,second compound 0.3 µM,< 9.49 nM
same,"viability, T/C","second compound 0.003 µM, first compound 0.00949 µM",78.6%
same,"viability, T/C","second compound 0.003 µM, first compound 0.03 µM",70.5%
same,"viability, T/C","second compound 0.003 µM, first compound 0.0949 µM",49.2%
same,"viability, T/C","second compound 0.003 µM, first compound 0.3 µM",23.5%
same,"viability, T/C","second compound 0.003 µM, first compound 0.949 µM",9.78%
same,"viability, T/C","second compound 0.003 µM, first compound 3 µM",7.01%
same,"viability, T/C","second compound 0.00949 µM, first compound 0.00949 µM",37.7%
same,"viability, T/C","second compound 0.00949 µM, first compound 0.03 µM",35.2%
same,"viability, T/C","second compound 0.00949 µM, first compound 0.0949 µM",21.8%
same,"viability, T/C","second compound 0.00949 µM, first compound 0.3 µM",15.4%
same,"viability, T/C","second compound 0.00949 µM, first compound 0.949 µM",8.01%
same,"viability, T/C","second compound 0.00949 µM, first compound 3 µM",4.79%
same,"viability, T/C","second compound 0.03 µM, first compound 0.00949 µM",7.22%
same,"viability, T/C","second compound 0.03 µM, first compound 0.03 µM",6.32%
same,"viability, T/C","second compound 0.03 µM, first compound 0.0949 µM",6.41%
same,"viability, T/C","second compound 0.03 µM, first compound 0.3 µM",5.13%
same,"viability, T/C","second compound 0.03 µM, first compound 0.949 µM",2.41%
same,"viability, T/C","second compound 0.03 µM, first compound 3 µM",2.5%
same,"viability, T/C","second compound 0.0949 µM, first compound 0.00949 µM",5.51%
same,"viability, T/C","second compound 0.0949 µM, first compound 0.03 µM",5.61%
same,"viability, T/C","second compound 0.0949 µM, first compound 0.0949 µM",5.13%
same,"viability, T/C","second compound 0.0949 µM, first compound 0.3 µM",4.3%
same,"viability, T/C","second compound 0.0949 µM, first compound 0.949 µM",2.91%
same,"viability, T/C","second compound 0.0949 µM, first compound 3 µM",2.35%
same,"viability, T/C","second compound 0.3 µM, first compound 0.00949 µM",4.66%
same,"viability, T/C","second compound 0.3 µM, first compound 0.03 µM",4.16%
same,"viability, T/C","second compound 0.3 µM, first compound 0.0949 µM",4.31%
same,"viability, T/C","second compound 0.3 µM, first compound 0.3 µM",3.08%
same,"viability, T/C","second compound 0.3 µM, first compound 0.949 µM",1.91%
same,"viability, T/C","second compound 0.3 µM, first compound 3 µM",0.64%
[2H]c1nc(C)nc([2H])c1-c1cc(NC[C@@H](C)c2cccc3c(C(=O)NC)ccnc23)ncn1 + COc1cc2c(cc1O)CCNC21CSC2c3c(OC(C)=O)c(C)c4c(c3C(COC1=O)N1C(O)C3Cc5cc(C)c(OC)c(O)c5C(C21)N3C)OCO4,IC50,second compound 30 pM,> 10000 nM
same,IC50,second compound 94.9 pM,> 10000 nM
same,IC50,second compound 0.0003 µM,< 31.6 nM
same,IC50,second compound 0.000949 µM,< 31.6 nM
same,IC50,second compound 0.003 µM,< 31.6 nM
same,"viability, T/C","second compound 30 pM, first compound 0.0316 µM",98%
same,"viability, T/C","second compound 30 pM, first compound 0.1 µM",93.5%
same,"viability, T/C","second compound 30 pM, first compound 0.316 µM",95.2%
same,"viability, T/C","second compound 30 pM, first compound 1 µM",99.1%
same,"viability, T/C","second compound 30 pM, first compound 3.16 µM",94.2%
same,"viability, T/C","second compound 30 pM, first compound 10 µM",86.2%
same,"viability, T/C","second compound 94.9 pM, first compound 0.0316 µM",86.5%
same,"viability, T/C","second compound 94.9 pM, first compound 0.1 µM",89%
same,"viability, T/C","second compound 94.9 pM, first compound 0.316 µM",92.5%
same,"viability, T/C","second compound 94.9 pM, first compound 1 µM",88.4%
same,"viability, T/C","second compound 94.9 pM, first compound 3.16 µM",92.1%
same,"viability, T/C","second compound 94.9 pM, first compound 10 µM",78.3%
same,"viability, T/C","second compound 0.0003 µM, first compound 0.0316 µM",16.1%
same,"viability, T/C","second compound 0.0003 µM, first compound 0.1 µM",16%
same,"viability, T/C","second compound 0.0003 µM, first compound 0.316 µM",17.8%
same,"viability, T/C","second compound 0.0003 µM, first compound 1 µM",14.6%
same,"viability, T/C","second compound 0.0003 µM, first compound 3.16 µM",9.62%
same,"viability, T/C","second compound 0.0003 µM, first compound 10 µM",12%
same,"viability, T/C","second compound 0.000949 µM, first compound 0.0316 µM",2.64%
same,"viability, T/C","second compound 0.000949 µM, first compound 0.1 µM",1.58%
same,"viability, T/C","second compound 0.000949 µM, first compound 0.316 µM",3.44%
same,"viability, T/C","second compound 0.000949 µM, first compound 1 µM",3.49%
same,"viability, T/C","second compound 0.000949 µM, first compound 3.16 µM",2.59%
same,"viability, T/C","second compound 0.000949 µM, first compound 10 µM",1.53%
same,"viability, T/C","second compound 0.003 µM, first compound 0.0316 µM",0.15%
same,"viability, T/C","second compound 0.003 µM, first compound 0.1 µM",0.14%
same,"viability, T/C","second compound 0.003 µM, first compound 0.316 µM",0.14%
same,"viability, T/C","second compound 0.003 µM, first compound 1 µM",0.14%
same,"viability, T/C","second compound 0.003 µM, first compound 3.16 µM",1.6%
same,"viability, T/C","second compound 0.003 µM, first compound 10 µM",0.24%
